Measurements from US9708293B2, “N-(pyridin-2-yl)pyrimidin-4-amine derivatives containing a sulfone group” (BAYER PHARMA AKTIENGESELLSCHAFT, priority 2012, dated 2017).

Experiments:
[1] = test system: A2780 cells; experiment: Proliferation assay, A2780; format: cell-based; conditions: Homo sapiens, A2780, 96 h; 4 days, crystal violet; read-out: Inhibition of A2780 cell proliferation IC50
Protocol: Cultivated tumour cells (HeLa, human cervical tumour cells, ATCC CCL-2; NCI-H460, human non-small cell lung carcinoma cells, ATCC HTB-177; A2780, human ovarian carcinoma cells, ECACC #93112519; DU 145, hormone-independent human prostate carcinoma cells, ATCC HTB-81; HeLa-MaTu-ADR, multidrug-resistant human cervical carcinoma cells, EPO-GmbH Berlin; Caco-2, human colorectal carcinoma cells, ATCC HTB-37; B16F10, mouse melanoma cells, ATCC CRL-6475) were plated at a density of 5,000 cells/well (DU145, HeLa-MaTu-ADR), 3,000 cells/well (NCI-H460, HeLa), 2,500 cells/well (A2780), 1,500 cells/well (Caco-2), or 1,000 cells/well (B16F10) in a 96-well multititer plate in 200 μL of their respective growth medium supplemented 10% fetal calf serum. […] Cell proliferation was determined by staining the cells with crystal violet: the cells were fixed by adding 20 μl/measuring point of an 11% glutaric aldehyde solution for 15 minutes at room temperature. […] The extinction was determined by photometry at a wavelength of 595 nm. The change of cell number, in percent, was calculated by normalization of the measured values to the extinction values of the zero-point plate (=0%) and the extinction of the untreated (0 μm) cells (=100%). […]

[2] = target: T1, CDK2/CycE (Homo sapiens, UniProt P24941); experiment: CDK2/CycE high ATP kinase assay (Method 2b); format: biochemical; conditions: 2 mM ATP, read-out: high ATP CDK2: CDK2/CycE1 kinase assay IC50
T1 construct: GST; purchased ProQinase GmbH (Freiburg, Germany); host or cells: insect cells (Sf9)
Protocol: 2b. CDK2/CycE High ATP Kinase Assay
CDK2/CycE-inhibitory activity of compounds of the present invention at 2 mM adenosine-tri-phosphate (ATP) was quantified employing the CDK2/CycE TR-FRET (TR-FRET=Time Resolved Fluorescence Energy Transfer) assay as described in the following paragraphs.
Recombinant fusion proteins of GST and human CDK2 and of GST and human CycE, expressed in insect cells (Sf9) and purified by Glutathion-Sepharose affinity chromatography, were purchase from ProQinase GmbH (Freiburg, Germany). As substrate for the kinase reaction biotinylated peptide biotin-Ttds-YISPLKSPYKISEG (C-terminus in amid form) was used which can be purchased e.g. form the company JERINI peptide technologies (Berlin, Germany).
For the assay 50 nl of a 100 fold concentrated solution of the test compound in DMSO was pipetted into a black low volume 384 well microtiter plate (Greiner Bio-One, Frickenhausen, Germany), 2 μl of a solution of CDK2/CycE in aqueous assay buffer [50 mM Tris/HCl pH 8.0, 10 mM MgCl2, 1.0 mM dithiothreitol, 0.1 mM sodium ortho-vanadate, 0.01% (v/v) Nonidet-P40 (Sigma)] were added and the mixture was incubated for 15 min at 22° C. to allow pre-binding of the test compounds to the enzyme before the start of the kinase reaction. Then the kinase reaction was started by the addition of 3 μl of a solution ATP (3.33 mM=>final conc. in the 5 μl assay volume is 2 mM) and substrate (1.25 μM=>final conc. in the 5 μl assay volume is 0.75 μM) in assay buffer and the resulting mixture was incubated for a reaction time of […] at 22° C. The concentration of CDK2/CycE was adjusted depending of the activity of the enzyme lot and was chosen appropriate to have the assay in the linear range, typical concentrations were in the range of 15 ng/ml. […]
The resulting mixture was incubated 1 h at 22° C. to allow the formation of complex between the phosphorylated biotinylated peptide and the detection reagents. Subsequently the amount of phosphorylated substrate was evaluated by measurement of the resonance energy transfer from the Eu-chelate to the streptavidine-XL. Therefore, the fluorescence emissions at 620 nm and 665 nm after excitation at 350 nm wer measured in a TR-FRET reader, e.g. a Rubystar (BMG Labtechnologies, Offenburg, Germany) or a Viewlux (Perkin-Elmer). […]

[3] = test system: HeLa-MaTu-ADR cells; experiment: Proliferation assay, HeLa-MaTu-ADR; format: cell-based; conditions: Homo sapiens, 96 h; 4 days, crystal violet; read-out: Inhibition of HeLa-MaTu-ADR cell proliferation IC50
Protocol: (§1) Cultivated tumour cells (HeLa, human cervical tumour cells, ATCC CCL-2; NCI-H460, human non-small cell lung carcinoma cells, ATCC HTB-177; A2780, human ovarian carcinoma cells, ECACC #93112519; DU 145, hormone-independent human prostate carcinoma cells, ATCC HTB-81; HeLa-MaTu-ADR, multidrug-resistant human cervical carcinoma cells, EPO-GmbH Berlin; Caco-2, human colorectal carcinoma cells, ATCC HTB-37; B16F10, mouse melanoma cells, ATCC CRL-6475) were plated at a density of 5,000 cells/well (DU145, HeLa-MaTu-ADR), 3,000 cells/well (NCI-H460, HeLa), 2,500 cells/well (A2780), 1,500 cells/well (Caco-2), or 1,000 cells/well (B16F10) in a 96-well multititer plate in 200 μL of their respective growth medium supplemented 10% fetal calf serum. After 24 hours, the cells of one plate (zero-point plate) were stained with crystal violet (see below), while the medium of the other plates was replaced by fresh culture medium (200 μl), to which the test substances were added in various concentrations (0 μM, as well as in the range of 0.001-10 μM; the final concentration of the solvent dimethyl sulfoxide was 0.5%). The cells were incubated for 4 days in the presence of test substances. Cell proliferation was determined by staining the cells with crystal violet: the cells were fixed by adding 20 μl/measuring point of an 11% glutaric aldehyde solution for 15 minutes at room temperature. After three washing cycles of the fixed cells with water, the plates were dried at room temperature. The cells were stained by adding 100 μl/measuring point of a 0.1% crystal violet solution (pH 3.0). After three washing cycles of the stained cells with water, the plates were dried at room temperature. The dye was dissolved by adding 100 μl/measuring point of a 10% acetic acid solution. The extinction was determined by photometry at a wavelength of 595 nm. The change of cell number, in percent, was calculated by normalization of the measured values to the extinction values of the zero-point plate (=0%) and the extinction of the untreated (0 μm) cells (=100%). […]

[4] = test system: B16F10 cells; experiment: Proliferation assay, B16F10; format: cell-based; conditions: Mus musculus, B16-F10, 96 h; 4 days, crystal violet; read-out: Inhibition of B16F10 cell proliferation IC50
Protocol: as §1

Structure (SMILES) | IC50 [1] | IC50 [2] | IC50 [3] | IC50 [4]
COc1cc(F)ccc1-c1cc(Nc2cc(CS(C)(=O)=O)ccn2)ncn1 [Example 1, 6-(4-Fluoro-2-methoxyphenyl)-N-{4-[(methylsulfonyl)methyl]pyridin-2-yl}pyrimidin-4-amine] | 65 nM | ≥ 20000 nM | 212 nM | 289 nM
COc1cc(F)ccc1-c1cc(Nc2cc(CS(C)(=O)=O)cc(C(F)(F)F)n2)ncn1 [Example 3, 6-(4-Fluoro-2-methoxyphenyl)-N-{4-[(methylsulfonyl)methyl]-6-(trifluoromethyl)pyridin-2-yl}pyrimidin-4-amine] | 14 nM | 371 nM | 33 nM | 34 nM
COc1cc(F)ccc1-c1cc(Nc2cc(CS(C)(=O)=O)cc(F)n2)ncn1 [Example 4, 6-(4-Fluoro-2-methoxyphenyl)-N-{6-fluoro-4-[(methylsulfonyl)methyl]pyridin-2-yl}pyrimidin-4-amine] | – | 1870 nM | – | –
COc1cc(F)ccc1-c1cc(Nc2cc(CS(C)(=O)=O)cc(C)n2)ncn1 [Example 2, 6-(4-Fluoro-2-methoxyphenyl)-N-{6-methyl-4-[(methylsulfonyl)methyl]pyridin-2-yl}pyrimidin-4-amine] | – | 2250 nM | 54 nM | 101 nM
